Experimental data: ChEMBL document CHEMBL1130486, “Novel 5-amino-6-methylquinolone antibacterials: A new class of non-6-fluoroquinolones” (1997)
Converted amounts (≈) assume the structure as drawn.

How the values were obtained:
[1] = system: Acinetobacter calcoaceticus; assay: In vitro minimum inhibitory concentration was determined for antibacterial activity against Acinetobacter calcoaceticus 15473 strain.; type: functional
Bacillus subtilis = assay: In vitro minimum inhibitory concentration was determined for antibacterial activity against Bacillus subtilis ATCC 6633 strain.; type: functional
Citrobacter koseri = assay: In vitro minimum inhibitory concentration was determined for antibacterial activity against Citrobacter diversus 2046E strain.; type: functional
Escherichia coli [2] = assay: In vitro minimum inhibitory concentration was determined for antibacterial activity against Escherichia coli 10536 strain; type: functional
Escherichia coli [3] = assay: In vitro minimum inhibitory concentration was determined for antibacterial activity against Escherichia coli 3190Y strain.; type: functional
Escherichia coli [4] = assay: In vitro minimum inhibitory concentration was determined for antibacterial activity against Escherichia coli 851E strain.; type: functional
Escherichia coli [5] = assay: In vitro minimum inhibitory concentration was determined for antibacterial activity against Escherichia coli TEM5 3739E strain.; type: functional
Escherichia coli [6] = assay: In vitro minimum inhibitory concentration was determined for antibacterial activity against Escherichia coli TEM9 2639E strain.; type: functional
Enterobacter cloacae [7] = assay: In vitro minimum inhibitory concentration was determined for antibacterial activity against Enterobacter cloacae 1194E strain.; type: functional
Enterobacter cloacae [8] = assay: In vitro minimum inhibitory concentration was determined for antibacterial activity against Enterobacter cloacae p99 strain.; type: functional
Klebsiella aerogenes [9] = assay: In vitro minimum inhibitory concentration was determined for antibacterial activity against Klebsiella aerogenes 1076E strain.; type: functional
Klebsiella aerogenes [10] = assay: In vitro minimum inhibitory concentration was determined for antibacterial activity against Klebsiella aerogenes 1082E strain.; type: functional
Micrococcus luteus = assay: In vitro minimum inhibitory concentration was determined for antibacterial activity against Micrococcus luteus ATCC 9341 strain.; type: functional
Pseudomonas aeruginosa [11] = assay: In vitro minimum inhibitory concentration was determined for antibacterial activity against Pseudomonas aeruginosa 1012E strain.; type: functional
Pseudomonas aeruginosa [12] = assay: In vitro minimum inhibitory concentration was determined for antibacterial activity against Pseudomonas aeruginosa 10145 strain.; type: functional
Salmonella typhimurium = assay: In vitro minimum inhibitory concentration was determined for antibacterial activity against Salmonella Typhimurium 14028 strain.; type: functional, Salmonella enterica subsp. enterica serovar Typhimurium; settings: Salmonella enterica
[13] = system: Staphylococcus epidermidis; assay: In vitro minimum inhibitory concentration was determined for antibacterial activity against Staphylococcus epidermis 178 strain.; type: functional
[14] = system: Staphylococcus epidermidis; assay: In vitro minimum inhibitory concentration was determined for antibacterial activity against Staphylococcus epidermis 887E strain.; type: functional
Staphylococcus aureus [15] = assay: In vitro minimum inhibitory concentration was determined for antibacterial activity against Staphylococcus aureus 6538p strain.; type: functional
Staphylococcus aureus [16] = assay: In vitro minimum inhibitory concentration was determined for antibacterial activity against Staphylococcus aureus 77 strain.; type: functional
Staphylococcus aureus [17] = assay: In vitro minimum inhibitory concentration was determined for antibacterial activity against Staphylococcus aureus giorgio strain.; type: functional
Staphylococcus aureus [18] = assay: In vitro minimum inhibitory concentration was determined for antibacterial activity against Staphylococcus aureus 241 strain.; type: functional
Enterococcus faecalis = assay: In vitro minimum inhibitory concentration was determined for antibacterial activity against […] 29212 strain.; type: functional

SMILES	MIC (Bacillus subtilis)	MIC (Escherichia coli [3])	MIC (Escherichia coli [4])	MIC (Escherichia coli [5])	MIC (Escherichia coli [6])	MIC (Enterobacter cloacae [7])	MIC (Enterobacter cloacae [8])	MIC [1]	MIC (Citrobacter koseri)	MIC (Escherichia coli [2])	MIC (Klebsiella aerogenes [9])	MIC (Klebsiella aerogenes [10])	MIC (Micrococcus luteus)	MIC [13]	MIC [14]	MIC (Staphylococcus aureus [15])	MIC (Staphylococcus aureus [16])	MIC (Staphylococcus aureus [17])	MIC (Staphylococcus aureus [18])	MIC (Enterococcus faecalis)	further results
Cc1c(N2CCNCC2)c(F)c2c(c1N)c(=O)c(C(=O)O)cn2C1CC1	0.031 µg/mL (≈ 0.086 µM)	≤ 0.008 µg/mL	0.031 µg/mL (≈ 0.086 µM)	0.5 µg/mL (≈ 1.39 µM)	0.031 µg/mL (≈ 0.086 µM)	0.063 µg/mL (≈ 0.175 µM)	≤ 0.008 µg/mL	0.13 µg/mL (≈ 0.361 µM)	0.063 µg/mL (≈ 0.175 µM)	≤ 0.008 µg/mL	0.25 µg/mL (≈ 0.694 µM)	0.031 µg/mL (≈ 0.086 µM)	4 µg/mL (≈ 11.1 µM)	16 µg/mL (≈ 44.4 µM)	0.13 µg/mL (≈ 0.361 µM)	0.25 µg/mL (≈ 0.694 µM)	0.5 µg/mL (≈ 1.39 µM)	0.25 µg/mL (≈ 0.694 µM)	16 µg/mL (≈ 44.4 µM)	4 µg/mL (≈ 11.1 µM)	MIC (Pseudomonas aeruginosa [11]): 1 µg/mL (≈ 2.77 µM); MIC (Pseudomonas aeruginosa [12]): 2 µg/mL (≈ 5.55 µM); MIC (Salmonella typhimurium): 0.063 µg/mL (≈ 0.175 µM)
O=C(O)c1cn(C2CC2)c2cc(N3CCNCC3)c(F)cc2c1=O [CIPROFLOXACIN]	–	≤ 0.008 µg/mL	–	0.13 µg/mL (≈ 0.392 µM)	–	–	–	0.25 µg/mL (≈ 0.754 µM)	0.016 µg/mL (≈ 0.0483 µM)	≤ 0.008 µg/mL	0.13 µg/mL (≈ 0.392 µM)	≤ 0.008 µg/mL	4 µg/mL (≈ 12.1 µM)	128 µg/mL (≈ 386 µM)	0.13 µg/mL (≈ 0.392 µM)	0.13 µg/mL (≈ 0.392 µM)	0.25 µg/mL (≈ 0.754 µM)	0.25 µg/mL (≈ 0.754 µM)	128 µg/mL (≈ 386 µM)	0.5 µg/mL (≈ 1.51 µM)	MIC (Pseudomonas aeruginosa [11]): 0.13 µg/mL (≈ 0.392 µM)
CC1COc2c(N3CCN(C)CC3)c(F)cc3c(=O)c(C(=O)O)cn1c23 (configuration not stated) [OFLOXACIN]	0.063 µg/mL (≈ 0.174 µM)	–	0.063 µg/mL (≈ 0.174 µM)	–	0.063 µg/mL (≈ 0.174 µM)	0.13 µg/mL (≈ 0.36 µM)	0.031 µg/mL (≈ 0.0858 µM)	0.25 µg/mL (≈ 0.692 µM)	0.13 µg/mL (≈ 0.36 µM)	0.031 µg/mL (≈ 0.0858 µM)	0.25 µg/mL (≈ 0.692 µM)	0.13 µg/mL (≈ 0.36 µM)	2 µg/mL (≈ 5.53 µM)	32 µg/mL (≈ 88.6 µM)	0.25 µg/mL (≈ 0.692 µM)	0.5 µg/mL (≈ 1.38 µM)	0.25 µg/mL (≈ 0.692 µM)	0.5 µg/mL (≈ 1.38 µM)	64 µg/mL (≈ 177 µM)	2 µg/mL (≈ 5.53 µM)	MIC (Salmonella typhimurium): 0.13 µg/mL (≈ 0.36 µM)

Further lines, with some results ahead:

MIC (Bacillus subtilis)	MIC (Escherichia coli [3])	MIC (Escherichia coli [4])	MIC (Escherichia coli [5])	MIC (Escherichia coli [6])	MIC (Enterobacter cloacae [7])	MIC (Enterobacter cloacae [8])	SMILES	MIC [1]	MIC (Citrobacter koseri)	MIC (Escherichia coli [2])	MIC (Klebsiella aerogenes [9])	MIC (Klebsiella aerogenes [10])	MIC (Micrococcus luteus)	MIC [13]	MIC [14]	MIC (Staphylococcus aureus [15])	MIC (Staphylococcus aureus [16])	MIC (Staphylococcus aureus [17])	MIC (Staphylococcus aureus [18])	MIC (Enterococcus faecalis)	further results
0.063 µg/mL (≈ 0.168 µM)	0.016 µg/mL (≈ 0.0427 µM)	0.063 µg/mL (≈ 0.168 µM)	0.5 µg/mL (≈ 1.34 µM)	0.063 µg/mL (≈ 0.168 µM)	0.13 µg/mL (≈ 0.347 µM)	0.016 µg/mL (≈ 0.0427 µM)	Cc1c(N2CCNC(C)C2)c(F)c2c(c1N)c(=O)c(C(=O)O)cn2C1CC1 (configuration not stated)	0.13 µg/mL (≈ 0.347 µM)	0.063 µg/mL (≈ 0.168 µM)	0.063 µg/mL (≈ 0.168 µM)	0.25 µg/mL (≈ 0.668 µM)	0.13 µg/mL (≈ 0.347 µM)	8 µg/mL (≈ 21.4 µM)	16 µg/mL (≈ 42.7 µM)	0.25 µg/mL (≈ 0.668 µM)	0.5 µg/mL (≈ 1.34 µM)	0.5 µg/mL (≈ 1.34 µM)	0.25 µg/mL (≈ 0.668 µM)	16 µg/mL (≈ 42.7 µM)	2 µg/mL (≈ 5.34 µM)	MIC (Pseudomonas aeruginosa [11]): 2 µg/mL (≈ 5.34 µM); MIC (Pseudomonas aeruginosa [12]): 2 µg/mL (≈ 5.34 µM); MIC (Salmonella typhimurium): 0.13 µg/mL (≈ 0.347 µM)
0.016 µg/mL (≈ 0.0427 µM)	0.016 µg/mL (≈ 0.0427 µM)	0.063 µg/mL (≈ 0.168 µM)	0.5 µg/mL (≈ 1.34 µM)	0.13 µg/mL (≈ 0.347 µM)	0.031 µg/mL (≈ 0.0828 µM)	0.031 µg/mL (≈ 0.0828 µM)	Cc1c(N2CCC(CN)C2)c(F)c2c(c1N)c(=O)c(C(=O)O)cn2C1CC1 (configuration not stated)	0.13 µg/mL (≈ 0.347 µM)	0.13 µg/mL (≈ 0.347 µM)	0.031 µg/mL (≈ 0.0828 µM)	0.25 µg/mL (≈ 0.668 µM)	0.13 µg/mL (≈ 0.347 µM)	4 µg/mL (≈ 10.7 µM)	16 µg/mL (≈ 42.7 µM)	0.031 µg/mL (≈ 0.0828 µM)	0.031 µg/mL (≈ 0.0828 µM)	0.063 µg/mL (≈ 0.168 µM)	0.031 µg/mL (≈ 0.0828 µM)	8 µg/mL (≈ 21.4 µM)	0.25 µg/mL (≈ 0.668 µM)	MIC (Pseudomonas aeruginosa [11]): 1 µg/mL (≈ 2.67 µM); MIC (Pseudomonas aeruginosa [12]): 2 µg/mL (≈ 5.34 µM); MIC (Salmonella typhimurium): 0.13 µg/mL (≈ 0.347 µM)
0.063 µg/mL (≈ 0.175 µM)	0.031 µg/mL (≈ 0.086 µM)	0.13 µg/mL (≈ 0.361 µM)	1 µg/mL (≈ 2.77 µM)	0.13 µg/mL (≈ 0.361 µM)	0.25 µg/mL (≈ 0.694 µM)	0.031 µg/mL (≈ 0.086 µM)	Cc1c(N2CCC(N)C2)c(F)c2c(c1N)c(=O)c(C(=O)O)cn2C1CC1 (configuration not stated)	0.5 µg/mL (≈ 1.39 µM)	0.13 µg/mL (≈ 0.361 µM)	0.031 µg/mL (≈ 0.086 µM)	0.5 µg/mL (≈ 1.39 µM)	0.13 µg/mL (≈ 0.361 µM)	8 µg/mL (≈ 22.2 µM)	16 µg/mL (≈ 44.4 µM)	0.25 µg/mL (≈ 0.694 µM)	0.25 µg/mL (≈ 0.694 µM)	0.5 µg/mL (≈ 1.39 µM)	0.25 µg/mL (≈ 0.694 µM)	8 µg/mL (≈ 22.2 µM)	8 µg/mL (≈ 22.2 µM)	MIC (Pseudomonas aeruginosa [11]): 1 µg/mL (≈ 2.77 µM); MIC (Pseudomonas aeruginosa [12]): 4 µg/mL (≈ 11.1 µM); MIC (Salmonella typhimurium): 0.25 µg/mL (≈ 0.694 µM)
